# From patent publication US4611056A, “Benzo[A]phenothiazines and hydro-derivatives” (Merck Frosst Canada, Inc., priority 1985, dated 1986)
# Structures can show the parent of a compound that is named as a salt.
# What was measured:
# [1] = test system: asthmatic rat; assay: certain biological tests, amorphous versus crystalline material; format: in vivo
# Source text: Representative results comparing the two forms of the compound are shown in the accompanying Table IV (where doses are in mg/kg, p.o.).
# [2] = test system: duration of dyspnoea in asthmatic rats (egg albumin challenge); assay: Asthmatic Rat Assay; format: in vivo; settings: for ED50 (Asthmatic Rat Assay): p.o.
# [3] = NMR study of equilibration of conformational isomers in solution; format: physicochemical; settings: upon dissolution at room temperature (DMF-d7)
# Method: In particular, the methyl group of the acetyl unit appears as four sharp singlets, of approximately equal intensity, at 1.89, 1.91, 1.99 and 2.28 parts per million (ppm).
# In another experiment, a sample of the crystalline compound was dissolved in DMF-d7, pre-cooled to -50° C., and the NMR spectrum taken quickly at -50° C. […] As the sample was warmed, these two signals coalesced to a singlet at about 30° C. (1.91 ppm); at about 80° C., a second singlet appeared (2.04 ppm), and at 170° C., these two singlets began to coalesce.
# In another NMR study of the compound, five samples were dissolved in DMF-d7 at 25° C., and then stored at -78° C., after being held for 0, 5, 15, 30 and 60 minutes at 25° C.
# As a result of the x-ray and NMR studies, it is concluded that there is a single conformational isomer of compound XVIII present in the crystalline form, and that this isomer equilibrated, upon dissolution at room temperature, over a period of approximately one hour, to a mixture of at least four observable conformational isomers which may possibly be represented as follows: [drawing 50]
# [4] = test system: LTB4 formation in rat peritoneal PMN leukocytes; assay: Rat Peritoneal Polymorphonuclear (PMN) Leukocyte Assay (inhibition of LTB4 formation); format: cell-based; settings: for IC50: Leukocyte, rat peritoneal PMN, 10 μM A-23187, 2 min preincubation at 37° C.
# Method: Rats under ether anesthesia are injected (i.p.) with 8 ml of a suspension of sodium cascinate (6 grams in ca. 50 ml water). […] The rats are sacrificed (CO2) and the cells from the peritoneal cavity are recovered by lavage with 20 ml of buffer (Eagles MEM containing 30 mM HEPES adjusted to pH 7.4 with NaOH). The cells are pelleted (350×g, 5 min.), resuspended in buffer with vigorous shaking, filtered through lens paper, recentrifuged and finally suspended in buffer at a concentration of 10 cells/ml. A 500 μl aliquot of PMN suspension and test compound are preincubated for 2 minutes at 37° C., followed by the addition of 10 μM A-23187. The suspension is stirred for an additional 4 minutes then bioassayed for LTB4 content by adding an aliquot to a second 500 μl portion of the PMN at 37° C. The LTB4 produced in the first incubation causes aggregation of the second PMN, which is measured as a change in light transmission. […] The percentage inhibition of LTB4 formation is calculated from the ration of transmission change in the sample to the transmission change in the compound-free control.
# [5] = test system: Platelet activating factor (PAF)-induced hyperalgesia in the rat paw; assay: PAF-Induced Hyperalgesia Assay; format: in vivo, rat (female Sprague-Dawley)
# Method: Female Sprague-Dawley rats, 35-40 g were fasted overnight. Platelet activating factor, PAF, (L-lecithin B-acetyl O-alkyl) 1 μg/0.1 ml was given by subplantar injection in the rat paw. The compounds to be evaluated were homogenized in Aqueous Vehicle (0.9% benzyl alcohol, 0.5% Tween 80 and 0.4% methylcellulose) and administered orally in a volume of 0.1 ml, 30 minutes prior to PAF.
# Animals were tested 1, 2, 3 and 4 hours after PAF administration. The vocalization threshold, defined as the pressure (mmHg) needed to evoke a squeak response, was recorded for both the injected and contralateral paw. No animal was subjected to pressure greater than 60 mmHg. Hyperalgesia is defined as a decrease in vocalization threshold as compared to a normal paw. Percent inhibition of hyperalgesia was calculated as the proportion of animals with vocalization thresholds greater than 200% of controls.
# [6] = 0.5 mg/kg p.o., vehicle 0.4% Tween 80/0.5% Methocel
# [7] = 1.5 mg/kg p.o., vehicle 0.4% Tween 80/0.5% Methocel
# [8] = 2 mg/kg p.o., vehicle 0.4% Tween 80/0.5% Methocel
# [9] = vehicle 0.4% Tween 80/0.5% Methocel
# [10] = Rattus norvegicus, po, 5 mg/kg p.o., Table III, read-out: Asth. Rat % Inhibition
# [11] = Rattus norvegicus, po, 1.5 mg/kg p.o., Table III, read-out: Asth. Rat % Inhibition
smiles,measurement,setting,value
"CC(=O)OC(C)OC(=O)N1c2ccccc2Sc2cc(O)c3ccccc3c21 (centres unmarked) [Compound XVIII, Amorphous (4 Conformers), 5-hydroxy-12-(1-acetoxyethoxycarbonyl)-12H-benzo[a]phenothiazine]",biological activity over the crystalline material,[1],advantageous biological activity over the crystalline material
same,% Inhibition (Asthmatic Rat Assay),[2]; [6],48%
same,% Inhibition (Asthmatic Rat Assay),"[2]; 0.5 mg/kg p.o., vehicle 1% Methocel",36%
same,% Inhibition (Asthmatic Rat Assay),[2]; [7],52%
same,% Inhibition (Asthmatic Rat Assay),"[2]; 1.5 mg/kg p.o., vehicle 1% Methocel",59%
same,% Inhibition (Asthmatic Rat Assay),[2]; [8],57%
same,ED50 (Asthmatic Rat Assay),[2]; [9],1.0 mg/kg
same,ED50 (Asthmatic Rat Assay),[2]; vehicle 1% Methocel,1.0 mg/kg
"CC(=O)OC(C)OC(=O)N1c2ccccc2Sc2cc(O)c3ccccc3c21 (centres unmarked) [Compound XVIII, Crystalline (1 Conformer)] [5-hydroxy-12-(1-acetoxyethoxycarbonyl)-12H-benzo[a]phenothiazine]",period of equilibration of the single conformational isomer to a mixture of at least four conformational isomers,[3],approximately one hour
same,% Inhibition (Asthmatic Rat Assay),[2]; [6],19%
same,% Inhibition (Asthmatic Rat Assay),[2]; [7],49%
same,% Inhibition (Asthmatic Rat Assay),[2]; [8],61%
same,% Inhibition (Asthmatic Rat Assay),"[2]; 2 mg/kg p.o., vehicle 1% Methocel",28%
same,% Inhibition (Asthmatic Rat Assay),"[2]; 5 mg/kg p.o., vehicle 0.4% Tween 80/0.5% Methocel",81%
same,ED50 (Asthmatic Rat Assay),[2]; [9],1.5 mg/kg
"CC(=O)Oc1cc2c(c3ccccc13)N(C(C)=O)c1ccccc1S2 [aromatic, Ac, Ac, S, 5-Acetoxy-12-acetyl-12H-benzo[a]phenothiazine]",inhibition in vivo at 5 mg/kg,[2]; [10],47%
"CC(=O)N1c2ccccc2Sc2cc(O)c3ccccc3c21 [aromatic, Ac, H, S, 12-acetyl-5-hydroxy-12H-benzo[a]phenothiazine]",IC50,[4],1000 to 5000 µg/mL
"COc1cc2c(c3ccccc13)N(C(C)=O)c1ccccc1S2 [aromatic, Ac, Me, S, 12-Acetyl-5-methoxy-12H-benzo[a]phenothiazine]",IC50,[4],5000 µg/mL
"CC(=O)Oc1cc2c(c3ccccc13)Nc1ccccc1O2 [aromatic, H, Ac, O, 5-Acetoxy-12H-benzo[a]phenoxazine]",inhibition in vivo at 5 mg/kg,[2]; [10],44%
"CC(=O)Oc1cc2c(c3ccccc13)Nc1ccccc1S2 [aromatic, H, Ac, S, 5-acetoxy-12H-benzo[a]phenothiazine]",IC50,[4],25 to 50 µg/mL
same,ED50,"[2]; Rattus norvegicus, po, Table III, read-out: Asth. Rat ED50",4 mg/kg
same,ED50,"[5]; Rattus norvegicus, Platelet, po",0.145 mg/kg
"CC(=O)Oc1cc2c(c3ccccc13)Nc1ccccc1S2(=O)=O [aromatic, H, Ac, SO2, 5-Acetoxy-12H-benzo[a]phenothiazine-7,7-dioxide]",inhibition in vivo at 5 mg/kg,[2]; [10],42%
"CC(C)(C)C(=O)Oc1cc2c(c3ccccc13)Nc1ccccc1S2 [aromatic, H, COC(CH3)3, S, 5-Trimethylacetoxy-12H-benzo[a]phenothiazine]",inhibition in vivo at 5 mg/kg,[2]; [10],54%
"NCC(=O)Oc1cc2c(c3ccccc13)Nc1ccccc1S2 [aromatic, H, COCH2 NH2 .HCl, S, 5-aminoacetoxy-12H-benzo[a]phenothiazine-hydrochloride salt]",inhibition in vivo at 1.5 mg/kg,[2]; [11],21%
same,inhibition in vivo at 3 mg/kg,"[2]; Rattus norvegicus, po, 3 mg/kg p.o., Table III, read-out: Asth. Rat % Inhibition",44%
"O=C(Oc1cc2c(c3ccccc13)Nc1ccccc1S2)c1ccccc1 [aromatic, H, COPh, S, 5-Benzoyloxy-12H-benzo[a]phenothiazine]",inhibition in vivo at 5 mg/kg,[2]; [10],18%
"Oc1cc2c(c3ccccc13)Nc1ccccc1S2 [aromatic, H, H, S, 5-hydroxy-12H-benzo[a]phenothiazine]",IC50,[4],20 to 100 µg/mL
same,inhibition in vivo at 1.5 mg/kg,[2]; [11],54%
"O=S1(=O)c2ccccc2Nc2c1cc(O)c1ccccc21 [aromatic, H, H, SO2, 5-Hydroxy-12H-benzo[a]phenothiazine-7,7-dioxide]",inhibition in vivo at 5 mg/kg,[2]; [10],67%
"CCOP(=O)(OCC)Oc1cc2c(c3ccccc13)Nc1ccccc1S2 [aromatic, H, PO(OEt)2, S, Diethyl 12H-benzo[a]phenothiazin-5-yl phosphate]",PMN IC50,[4],200 to 1000 µg/mL
"CC(=O)Oc1cc2c(c3ccccc13)N(C)c1ccccc1S2 [aromatic, Me, Ac, S, 5-acetoxy-12-methyl-12H-benzo[a]phenothiazine]",IC50,[4],50 µg/mL
same,PAF Induced Hyperalgesia % Inhibition,[5]; 1 mg/kg p.o.,30-60%
"COc1cc2c(c3ccccc13)N(C)c1ccccc1S2 [aromatic, Me, Me, S, 5-methoxy-12-methyl-12H-benzo[a]phenothiazine]",IC50,[4],5000 µg/mL
same,PAF Induced Hyperalgesia % Inhibition,[5]; 1 mg/kg p.o.,40%
same,PAF Induced Hyperalgesia % Inhibition,[5]; 3 mg/kg p.o.,80%
"CC(=O)OC(C)OC(=O)N1c2ccccc2Sc2cc(O)c3ccccc3c21 (centres unmarked) [aromatic, drawing 52, H, S, 5-hydroxy-12-(1-acetoxyethoxycarbonyl)-12H-benzo[a]phenothiazine]",inhibition in vivo at 1.5 mg/kg,[2]; [11],49%
same,PAF Induced Hyperalgesia % Inhibition,[5]; 3 mg/kg p.o.,60%
